Measured values as given in patent US9233107B2, “Compositions and methods for the treatment of progressive multifocal leukoencephalopathy (PML)” (Biogen MA Inc., priority 2007, dated 2016).
Where two headings read alike, the source gives them in different places.

Columns and labels:
[1] = test system: JCV; test: Anti-JCV activity of structural analogs (Tables 4 and 5); type: cell-based, JC polyomavirus (JCV)
[2] = test system: JCV strain Mad1/SVEΔ; test: microbe, parasite or virus in culture; type: cell-based, JC polyomavirus (JCV); settings: for % Inhibition (total #JCV+) @10 uM: SV40 transformed glial cells, Mad-1/SVEΔ JCV; for % Inhibition (% JCV+) @10 uM: infection rate, JCV+ cells normalised to total cells
Procedure: (§1) SV40 transformed glial cells were seeded in 10% FBS media. The cells were seeded at 2000 cells per well in 75 μl of media per well. On day 2, the media was removed and replaced by 35 μl of a 1× concentrated drug aliquot combined with a 100× diluted JCV Turbo aliquot in 35 μl of 2% FBS media (JCV Turbo is a hybrid Mad-1/SVEΔ virus constructed by insertion of the regulatory region of SV40 into the regulatory region of the Mad-1 strain of JCV (Mad-1/SVE), Vacante et al., Virology 1989, 170: 353-361). The cells were incubated for an hour, after which another 65 uL aliquot of 1× concentrated drug in 2% FBS was added. On day 5 the cells were stained with DAPI (for total cell number) and with a mouse monoclonal antibody against SV40 VP1, which cross reacts with the JCV VP1 protein. […] The information is tabulated as % inhibition (as measured by the number and percentage of JCV positive cells).
(§2) JCV Infectivity Assay: SVG-A cells were seeded at 2,000 cells/well/0.075 ml of culture media in 96 flat-bottom well plate (Corning, N.Y.). The next day compounds were prepared in assay medium (2% heat-inactivated fetal bovine serum, 4 mM L-glutamine, 1×MEM). A master viral plate was prepared by mixing equal volumes of [2×] compound and [2×] diluted virus for the final 1× concentration of the compound and the virus. The plate containing cells was gently inverted and shaken to remove media. From the master plate, 0.035 ml compound/virus was added to designated wells. The cells were incubated with the compound/virus mixture for 60 minutes in a humidified 37° C. CO2 incubator. At that time final concentration of the drug in media was added to designated wells to bring the final volume up to 0.1 ml/well. The plates were incubated for an additional three days, the cells were then washed once with 1×PBS, and fixed in 2% paraformaldehyde/1×PBS for 30 minutes at room temperature. The fixative was removed and the cells were solubilized with 0.5% Triton X100 in PBS for an additional 30 minutes. Infection by Mad-1/SVEΔ virus was visualized by staining with PAB597, a monoclonal antibody against the major capsid protein VP1, the cells were incubated with 0.05 ml of PAB597 (2 μg/ml in 1×PBS) for 60 minutes at 37° C. Following a wash step with 1×PBS, primary antibody was detected with an Alexa-Fluor 488-labeled goat anti-mouse secondary antibody at 1:100 dilution in 1×PBS, cells were counterstained with DAPI at 1 μg/ml (0.05 ml/well) for 30 minutes at 37° C. Cells were washed with 1×PBS and 0.1 ml 1×PBS was added to cells. Field images of each well were acquired and analyzed using the Cellomics ArrayScan (Thermo Scientific Inc, Waltham, Mass.) using the Target Activation software. […] The cells are seeded at 4,000 cells/well/0.075 ml of culture media in 96 flat-bottom well plate (Corning). The culture media is used for the infection. The length of the infection is six to ten days (instead of the three days for SVG-A cells).
Calculations: The rate of JCV infection was calculated by normalizing the number of JCV infected cells by the total number of nucleated cells as % JCV^+ cells=((total # VP1^+ cells)/(total # DAPI^+ cells))*100%. The % of viral inhibition by a compound was calculated using a JCV infection rate instead of using total number of JCV infected cells (e.g., VP1^+ cells).

[3] = test system: SVG-A cells; test: Total cell number (DAPI+ events) / cytotoxicity in the JCV infectivity assay; settings: for inhibition at 10 µM: Homo sapiens, SVG-A, read-out: % Inhibition total Cell Number @10 uM; for % Inhibition total Cell Number @10 uM: cytotoxicity, DAPI count
Procedure: as §1, §2
The primary assay employed an SVG-A cell line and JCV Mad1/SVEΔ viral strain.

[4] = published PK data; cited from earlier work
[5] = Table 4, mefloquine functional fingerprint in silico screen compounds
[6] = JC polyomavirus, Glial cell, read-out: % Inhibition (total #JCV+) @10 uM
[7] = JC polyomavirus, SVG-A, read-out: % Inhibition (% JCV+) @10 uM

Compound | inhibition at 10 µM [2, 6] | inhibition at 10 µM [2, 7] | inhibition at 10 µM [3] | also measured
CC[C@@H](CO)Nc1nc(NCc2ccccc2)c2ncn(C(C)C)c2n1 (single isomer, unassigned) [ROSCOVITINE, (S)-ISOMER] |  |  |  | anti-JCV activity [1, 5]: Yes
CC(=O)OC(C)C1CCC2C3CCC4=CC(O)CCC4(C)C3CCC12C (stereo not drawn) [4-PREGNEN-3-BETA, 20-BETA-DIOL 20-ACETATE] |  |  |  | anti-JCV activity ([1]; Table 5, fusidic acid analogs): Yes
Nc1nccc2c1ncn2[C@@H]1O[C@H](CO)[C@@H](O)[C@H]1O [3-DEAZAADENOSINE] |  |  |  | anti-JCV activity [1, 5]: Yes
CC1=C(/C=C/C(C)=C/C=C/C(C)=C\C(=O)O)C(C)(C)CCC1 [ISOTRETINOIN] | 39% | 28% | 15% | IC50 ([2]; JC polyomavirus, SVG-A): 4.4 µM; plasma Cmax [4]: 1100 ng/mL
CC(=O)OC(C)C1CCC2C3CC(O)C4CC(O)CCC4(C)C3CCC12C (stereo not drawn) [5-BETA-PREGNAN-3-ALPHA, 6-ALPHA, 20-BETA-TRIOL 20-ACETATE] |  |  |  | anti-JCV activity ([1]; Table 5, fusidic acid analogs): Yes
CC(=O)O[C@H]1CC[C@H]2[C@@H]3CCC4=C[C@@H](O)CC[C@@H]4[C@H]3CC[C@]12C [4-ESTREN-3-BETA, 17-BETA-DIOL 17-ACETATE] |  |  |  | anti-JCV activity ([1]; Table 5, fusidic acid analogs): Yes
CC(=O)OC(C)C1CCC2C3CC(O)C4CC(O)CCC4(C)C3CCC12C (stereo not drawn) [5-BETA-PREGNAN-3-ALPHA, 6-ALPHA, 20-ALPHA-TRIOL 20-ACETATE] |  |  |  | anti-JCV activity ([1]; Table 5, fusidic acid analogs): No
Nc1nc(OCC2CCCCC2)c2[nH]cnc2n1 [O6-Cyclohexylmethylguanine] |  |  |  | anti-JCV activity [1, 5]: Yes
C=C[C@@H]1C2=CCOC(=O)C2=CO[C@H]1O[C@@H]1O[C@H](CO)[C@@H](O)[C@H](O)[C@H]1O [GENTIOPICROSIDE] | 32% | 22% | 11% | 
Nc1nc2c(ncn2[C@@H]2O[C@H](CO)[C@@H](O)[C@H]2O)c(=O)[nH]1 [GUANOSINE] |  |  |  | anti-JCV activity [1, 5]: No
O=c1cc(-c2ccc(O)cc2)oc2ccc(O)cc12 [6,4′-DIHYDROXYFLAVONE] | 18% | 22% | -5% | 
COc1cc(C)c(C(=O)Oc2cc(C)c(C(=O)O)c(O)c2C)c(OC)c1C [DIFFRACTIC ACID] |  |  |  | % Inhibition (total #JCV+) @10 uM [2]: 44%; % Inhibition (% JCV+) @10 uM [2]: 36%; IC50 ([2]; anti-JCV, inhibition of % JCV infected cells by 50%, full dose response, read-out: IC50): 14.4 µM; CC50 [3]: > 40 µM; % Inhibition total Cell Number @10 uM [3]: 13%
COc1ccc2c(c1)c(CC(=O)OCC(=O)O)c(C)n2C(=O)c1ccc(Cl)cc1 [ACEMETACIN] | 32% | 38% | -8% | 
CN(CCOc1ccc(CC2SC(=O)NC2=O)cc1)c1ccccn1 (stereo not drawn) [ROSIGLITAZONE] | 22% | 23% | -1% | 
O=C(O)Cc1ccccc1Nc1c(Cl)cccc1Cl [DICLOFENAC SODIUM] | 44% | 31% | 18% | IC50 ([2]; JC polyomavirus, SVG-A): 8.3 µM; CC50 ([3]; human, 3 days): 30.5 µM
COc1ccc2cc(CCC(C)=O)ccc2c1 [NABUMETONE] | 20% | 23% | -2% | 
COc1ccc([C@@H](C)C(=O)c2ccc(O)cc2O)cc1 [(R)-ANGOLENSIN] |  |  |  | % Inhibition (total #JCV+) @10 uM [2]: 18%; % Inhibition (% JCV+) @10 uM [2]: 22%; % Inhibition total Cell Number @10 uM [3]: −5%
Clc1ccc(COC(Cn2ccnc2)c2ccc(Cl)cc2Cl)c(Cl)c1 (stereo not drawn) [MICONAZOLE NITRATE] | 46% | 42% | 7% | CC50 ([3]; read-out: TC50, inhibition of total cell numbers by 50%): 22.9 µM; plasma Cmax [4]: 10 ng/mL

Compound | inhibition at 10 µM [2, 6] | inhibition at 10 µM [2, 7] | inhibition at 10 µM [3] | also measured
O=S1OCC2C(CO1)C1(Cl)C(Cl)=C(Cl)C2(Cl)C1(Cl)Cl (stereo not drawn) [ENDOSULFAN] | 54% | 44% | 19% | 
COc1cc(OC)c(C(C)=O)c(OC)c1 [METHYLXANTHOXYLIN] |  |  |  | % Inhibition (total #JCV+) @10 uM [2]: 33%; % Inhibition (% JCV+) @10 uM [2]: 30%; % Inhibition total Cell Number @10 uM [3]: 5%
CCCCCCCCCCCCCCCC(=O)OC[C@@H](NC(=O)C(Cl)Cl)[C@H](O)c1ccc([N+](=O)[O-])cc1 [CHLORAMPHENICOL PALMITATE] | 20% | 29% | -13% | 
POLYMYXIN B SULFATE |  |  |  | % Inhibition (total #JCV+) @10 uM [2]: 36%; % Inhibition (% JCV+) @10 uM [2]: 41%; % Inhibition total Cell Number @10 uM [3]: −8%
Nc1ncnc2c1nc(Cl)n2[C@@H]1O[C@H](CO)[C@@H](O)[C@H]1O [8-CHLOROADENOSINE] |  |  |  | anti-JCV activity [1, 5]: Yes
COc1ccc(C(=O)c2ccccc2O)c(O)c1 [DIOXYBENZONE, 2,2′-Dihydroxy-4-methoxybenzophenone] | 55% | 49% | 11% | 
Nc1ncnc2c1ncn2[C@@H]1O[C@H](CO)[C@@H](O)[C@H]1O [ADENOSINE] |  |  |  | anti-JCV activity [1, 5]: No
C[C@@H]1CC[C@@]2(OC1)O[C@H]1C[C@H]3[C@@H]4CC[C@H]5C[C@@H](O)CC[C@]5(C)C4=CC[C@]3(C)[C@H]1[C@@H]2C [3beta-HYDROXYISOALLOSPIROST-9(11)-ENE] |  |  |  | % Inhibition (total #JCV+) @10 uM [2]: 25%; % Inhibition (% JCV+) @10 uM [2]: 21%; % Inhibition total Cell Number @10 uM [3]: 3%
O=C(O)c1ccccc1Nc1cccc(C(F)(F)F)c1 [FLUFENAMIC ACID] | 37% | 26% | 14% | 
Nc1ccn(C[C@@H](CO)OCP(=O)(O)O)c(=O)n1 [cidofovir] |  |  |  | percent inhibition of infection rate (% JCV+ cells), in words ([2]; FIG. 3D, SVG-A cells): not significant; inhibition of total number of cells in culture, in words [3]: inhibited the total number of cells in culture to the same degree
GINKGOLIC ACID |  |  |  | % Inhibition (total #JCV+) @10 uM [2]: 33%; % Inhibition (% JCV+) @10 uM [2]: 39%; % Inhibition total Cell Number @10 uM [3]: −8%
CC(=O)OC1CC2CC(O)CCC2(C)C2CC(OC(C)=O)C3(C)C(C(C)CC(=O)O)CCC3C12 (stereo not drawn) [23-NOR-5-BETA-CHOLANIC ACID-3-ALPHA, 7-ALPHA, 12-ALPHA-TRIOL 7,12-DIACETATE] |  |  |  | anti-JCV activity ([1]; Table 5, fusidic acid analogs): No
O=c1oc2ccccc2c(O)c1Cc1c(O)c2ccccc2oc1=O [DICUMAROL] | 36% | 35% | 3% | 
CC(=O)OCC(=O)[C@@]12OC3(CCCC3)O[C@@H]1C[C@H]1[C@@H]3CCC4=CC(=O)C=C[C@]4(C)[C@@]3(F)[C@@H](O)C[C@@]12C [AMCINONIDE] | 16% | 25% | -11% | 
COc1cc([C@@H]2c3cc4c(cc3[C@H](O)[C@H]3COC(=O)[C@@H]23)OCO4)cc(OC)c1OC [PICROPODOPHYLLOTOXIN] | 19% | 22% | -1% | 
C[C@H]1CC[C@]2(NC1)O[C@H]1C[C@H]3[C@@H]4CC[C@H]5C[C@@H](O[C@@H]6O[C@H](CO)[C@H](O[C@@H]7O[C@H](CO)[C@@H](O)[C@H](O[C@@H]8OC[C@@H](O)[C@H](O)[C@H]8O)[C@H]7O[C@@H]7O[C@H](CO)[C@@H](O)[C@H](O)[C@H]7O)[C@H](O)[C@H]6O)CC[C@]5(C)[C@H]4CC[C@]3(C)[C@H]1[C@@H]2C [TOMATINE] | 40% | 29% | 12% | 
COc1ccc(-c2cc(=O)c3c(O)c(OC)c(OC)c(OC)c3o2)cc1OC [DEMETHYLNOBILETIN] |  |  |  | % Inhibition (total #JCV+) @10 uM [2]: 38%; % Inhibition (% JCV+) @10 uM [2]: 20%; % Inhibition total Cell Number @10 uM [3]: 20%
